From article PMC6769917, “Glycan Binding Profiling of Jacalin-Related Lectins from the Pteria Penguin Pearl Shell” (International Journal of Molecular Sciences, 2019)

Biological target: T1, PPL4 (Pteria penguin, UniProt B6F0T8+B6F0T9)
T1 construct: gene PPL4-a; native, purified from mantle secretory fluid; mature 148 residues per subunit, 16 kDa; disulfide-linked heterodimer 32 kDa (head-to-head, N-terminal bond); N-termini […]; (alpha), […]; (beta)
Experiment: hemagglutination inhibition, rabbit erythrocytes, purified lectin
Format: cell-based
Settings: 0.15 M NaCl; hemagglutination titer 2^−3; 2% rabbit erythrocytes
Description: hemagglutination inhibition, rabbit erythrocytes, purified lectin on PPL4

T1 sequence (B6F0T8 entry or part of it): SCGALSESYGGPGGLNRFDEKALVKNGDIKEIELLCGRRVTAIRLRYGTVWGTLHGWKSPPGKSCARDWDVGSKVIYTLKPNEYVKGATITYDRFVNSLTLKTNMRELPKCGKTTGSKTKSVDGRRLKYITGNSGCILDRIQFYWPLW
T1 sequence (B6F0T9 entry or part of it): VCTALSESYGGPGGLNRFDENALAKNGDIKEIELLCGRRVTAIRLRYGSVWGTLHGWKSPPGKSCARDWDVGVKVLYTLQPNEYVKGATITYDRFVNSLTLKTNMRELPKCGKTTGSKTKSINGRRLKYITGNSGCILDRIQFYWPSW

| Compound | PPL4 [mM] | PPL3 [mM] |
| --- | --- | --- |
| CC(=O)N[C@H]1C(O)O[C@H](CO)[C@@H](O)[C@@H]1O (stereo partly drawn) [N-Acetyl-D-glucosamine] | 6.25 | – |
| OC[C@H]1O[C@H](O[C@H]2O[C@H](CO)[C@@H](O)[C@H](O)[C@H]2O)[C@H](O)[C@@H](O)[C@@H]1O [Trehalose] | 100 | – |
| OCC1(O)OC[C@@H](O)[C@@H](O)[C@@H]1O (stereo partly drawn) [D-Fructose] | – | 50 |
| OC[C@H]1O[C@H](OC[C@H]2OC(O)[C@H](O)[C@@H](O)[C@@H]2O)[C@H](O)[C@@H](O)[C@@H]1O (some centres unmarked) [Isomaltose] | > 200 | – |
| OC[C@H]1O[C@H](O[C@H]2C(O)O[C@H](CO)[C@@H](O)[C@@H]2O)[C@H](O)[C@@H](O)[C@@H]1O (some centres unmarked) [Kojibiose] | 100 | – |
